Data: EP1622888B1, “BENZO-, NAPHTHO- AND PHENANTHROCHROMENES SUBSTITUTED WITH AN ARYLAMINE GROUP WITH PHOTOCHROMIC PROPERTIES” (Corning Incorporated, priority 2003, dated 2004)

Assay: Photochromic properties: UV-visible absorption of THF solutions before and after exposure to a UV source at 365 nm
Type: physicochemical
Settings: 5 mg in 50 ml of THF, optical path of 1 cm, after exposure to a UV source at 365 nm
Description: The photochromic properties of said compounds (1) to (6) and (C1) to (C5) were evaluated.
Said compounds were dissolved, at the rate of 5 mg in 50 ml of THF, and the UV-visible absorptions (optical path of 1 cm) is then measured before and after exposure to a UV source at 365 nm. The observation of the tints and the intensities developed is done by placing the solutions in the sun or before a solar simulator.

Q: For `COc1ccc(C2(c3ccccc3)C=Cc3c(c4c(c5cc(OC)c(OC)cc35)CCc3ccccc3-4)O2)cc1` (centres unmarked) [(C2), reference compound], which “λMAX VIS: λ of the band of the lowest energy in the field of the visible spectrum of the compound after exposure” value (shortened to “λMAX VIS: λ”) is on record?
A: 441 nm

Q: With `COc1cc2c3c(c4c(c2cc1OC)CCc1ccccc1-4)OC(c1ccccc1)(c1ccc(N(C)C)cc1)C=C3` (centres unmarked) [(C1), reference compound] as the molecule, how does the “λMAX VIS: λ” value read?
A: 507 nm

Q: With `COc1cc2c3c(c4c(c2cc1OC)CCc1ccccc1-4)OC(c1ccccc1)(c1ccc(N(C)C)c(-c2ccccc2)c1)C=C3` (centres unmarked) [(2)] as the molecule, how does the “λMAX VIS: λ” value read?
A: 465 nm

Q: Which “λMAX VIS: λ” value does the source give for `COc1cc2c3c(c4c(c2cc1OC)CCc1ccccc1-4)OC(c1ccccc1)(c1ccc(N(C)C)c(C)c1)C=C3` (centres unmarked) [(1)] here?
A: 452 nm

Q: For `COc1ccc2c3c(c4c(c2c1)OC(c1ccccc1)(c1ccc(N(C)C)cc1)C=C4)CCc1ccccc1-3` (centres unmarked) [(C3), reference compound], which “λMAX VIS: λ” value is on record?
A: 584 nm

Q: And the “λVIS1: λ of the band of highest energy in the field of the visible spectrum of the compound after exposure” value (“λVIS1: λ of the band of highest energy” for short)?
A: 482 nm

Q: What does the source list for `COc1ccc(C2(c3ccc(N(C)C)c(C)c3)C=Cc3c4c(c5cc6c(cc5c3O2)OCC6)-c2ccccc2CC4)cc1` (centres unmarked) [(5)]?
A: λMAX VIS: λ of the band of the lowest energy in the field of the visible spectrum of the compound after exposure: 563 nm; λVIS1: λ of the band of highest energy in the field of the visible spectrum of the compound after exposure: 444 nm

Q: Which “λMAX VIS: λ” value does the source give for `COc1cc2c3c(c4c(c2cc1OC)CCc1ccccc1-4)OC(c1ccccc1)(c1ccc(NC(C)=O)cc1)C=C3` (centres unmarked) [(C5), reference compound] here?
A: 446 nm

Q: For `COc1ccc2c3c(c4c(c2c1)OC(c1ccccc1)(c1ccc(N(C)C)c(C)c1)C=C4)CCc1ccccc1-3` (centres unmarked) [(3)], which “λMAX VIS: λ” value is on record?
A: 556 nm

Q: And the “λVIS1: λ of the band of highest energy” value?
A: 435 nm

Q: With `COc1ccc2c3c(c4c(c2c1)OC(c1ccccc1)(c1ccc(N(C)C)c(-c2ccccc2)c1)C=C4)CCc1ccccc1-3` (centres unmarked) [(4)] as the molecule, how does the “λMAX VIS: λ” value read?
A: 562 nm

Q: And the “λVIS1: λ of the band of highest energy” value?
A: 469 nm

Q: With `COc1ccc(C2(c3ccc(N(C)C)c(Br)c3)C=Cc3c4c(c5cc6c(cc5c3O2)OCC6)-c2ccccc2CC4)cc1` (centres unmarked) [(6)] as the molecule, how does the “λMAX VIS: λ” value read?
A: 561 nm

Q: What about the “λVIS1: λ of the band of highest energy” value of the same molecule?
A: 443 nm

Q: For `COc1ccc(C2(c3ccccc3)C=Cc3c4c(c5ccc(OC)cc5c3O2)-c2ccccc2CC4)cc1` (centres unmarked) [(C4), reference compound], which “λMAX VIS: λ” value is on record?
A: 548 nm

Q: What about the “λVIS1: λ of the band of highest energy” value of the same molecule?
A: 429 nm
